How the values were obtained:
pheromone receptor Ste2 [1] = biological target: T1, pheromone receptor Ste2 (Saccharomyces cerevisiae, UniProt D6VTK4); test: Pheromone pathway activity reporter assay, 4PRE-LacZ (β-Galactosidase) reporter in yeast; type: cell-based
T1 construct: As a yeast strain W303 MAT a, far::hisG, sst2::URA3^FOA, fus1::HIS3 was used; endogenous in cells; host or cells: yeast strain W303 MATa far::hisG sst2::URA3^FOA fus1::HIS3, transformed with reporter plasmid p78 4PRE-AEQ or p78 4PRE-LacZ
T1 sequence (D6VTK4 1-431): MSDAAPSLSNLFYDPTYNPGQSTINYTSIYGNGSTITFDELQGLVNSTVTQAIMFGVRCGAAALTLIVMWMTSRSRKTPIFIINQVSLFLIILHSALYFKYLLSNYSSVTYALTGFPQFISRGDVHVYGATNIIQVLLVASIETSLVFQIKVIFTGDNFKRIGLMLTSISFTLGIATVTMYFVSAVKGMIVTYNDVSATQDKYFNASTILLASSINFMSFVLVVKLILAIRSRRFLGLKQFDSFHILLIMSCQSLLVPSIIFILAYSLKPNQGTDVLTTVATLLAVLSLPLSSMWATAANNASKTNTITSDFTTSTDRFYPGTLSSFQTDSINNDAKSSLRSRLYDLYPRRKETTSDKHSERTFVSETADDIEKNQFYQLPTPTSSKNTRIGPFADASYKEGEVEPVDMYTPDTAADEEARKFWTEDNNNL
Procedure: (§1) As a yeast strain W303 MAT a, far::hisG, sst2::URA3^FOA, fus1::HIS3 was used.
The cells are distributed and/or grown in a white 96-well plate, in a volume of 100 μl. At the measurement time point, each well receives 100 μl of a β-Galactosidase detection mix (Gal-screen, Tropix).
The plate is incubated for one hour at 28° C.
β-Galactosidase signal is read in a luminometer; the luminescent signal is integrated for 0.5 seconds.
(§2) In this assay, the expression of the two reporter genes depends on the activity of the pheromone mating pathway (Leberer et al., 1997). The minimal promoter 4PRE amplified from the FUS1 promoter region (Hagen et al., 1991) is activated only in case of a mating signal. This signal is elicited by stimulation of the pheromone receptor Ste2 by its ligand α-factor.
(§3) Three colonies of the yeast strain transformed with either p78 4PRE-AEQ or p78 4PRE-LacZ plasmids were grown in the appropiate medium (SC Glucose—Trp) to stationary phase and then diluted in the same medium (with 0.5 μM coelenterazin for the aequorin strain) containing 0; 10^−7; 10^−9; 10^−11M α-factor (Sigma). The plates were then shaken at 30° C., 700 r.p.m., for 3, 6 and 24 hours.
(§4) To allow the comparison between the two reporters and the different stimulation times, the measured detection numbers of Aequorin (FIG. 5) and β-Galactosidase (FIG. 6) are expressed as a ratio: stimulated/non stimulated.

pheromone receptor Ste2 [2] = biological target: T1, pheromone receptor Ste2; test: Pheromone pathway activity reporter assay, 4PRE-Aequorin reporter in yeast; type: cell-based
Procedure: as §1
The cells are distributed and/or grown in a white 96-well plate, in a volume of 100 μl.
30 minutes before the measurement time point, 10 μl of a 5 μM coelenterazine (Molecular Probes) solution is distributed in each well (to obtain a 0.5 μM final concentration) to load the cells.
The plate is then incubated at 30° C. for the last 30 minutes.
Aequorin detection is made in a luminometer with injecting system (Luminoskan, Labsystems). For each well, immediately after injection of a 10 mM CaCl2 solution (1M CaCl2 diluted in lysis buffer Y-PER from Pierce), the luminescent signal is integrated for 15 seconds.
To avoid the intermediate step of loading, it is possible to introduce coelenterazine in the medium at the beginning of the assay: coelenterazine is added at a concentration of 0.5 μM.
as §2, §3, §4

GPCR Ste2 = biological target: T2, GPCR Ste2 (Saccharomyces cerevisiae, UniProt D6VTK4); conditions: yeast cell, basal level approximately 100 nM; Iida et al., 1990; cited from earlier work
T2 construct: The addition of α-factor to a yeast cell (i.e. stimulation of the GPCR Ste2) raises [Ca^2+]i
T2 sequence (D6VTK4 1-431): T1 sequence (D6VTK4 1-431)

[3] = 1 nM α-factor, 3 hours of stimulation
[4] = 1 nM α-factor, 6 hours of stimulation
[5] = 100 nM α-factor, 3 hours of stimulation
[6] = 100 nM α-factor, 6 hours of stimulation

In the case of α-factor, the “β-Galactosidase detection ratio stimulated/non stimulated” value (pheromone receptor Ste2 [1]; [3]) is reported as 4, the “β-Galactosidase detection ratio stimulated/non stimulated” value (pheromone receptor Ste2 [1]; [4]) is reported as 7 and the “β-Galactosidase detection ratio stimulated/non stimulated” value (pheromone receptor Ste2 [1]; [5]) is reported as 7. For the same substance, the “β-Galactosidase detection ratio stimulated/non stimulated” value (pheromone receptor Ste2 [1]; [6]) was 7, the “Aequorin detection ratio stimulated/non stimulated” value (pheromone receptor Ste2 [2]; [3]) was 8 and the “Aequorin detection ratio stimulated/non stimulated” value (pheromone receptor Ste2 [2]; [4]) was 11. The “Aequorin detection ratio stimulated/non stimulated” value (pheromone receptor Ste2 [2]; [5]) was 24, the “Aequorin detection ratio stimulated/non stimulated” value (pheromone receptor Ste2 [2]; [6]) was 36 and the “[Ca2+]i after addition of α-factor” value (GPCR Ste2) was “a few hundred”.
